The values that follow come from US20190275040A1, “COMPOUNDS AND METHODS FOR TREATING OR PREVENTING ALZHEIMER'S DISEASE” (YALE UNIVERSITY, priority 2016, published 2019).

SMILES strings stand for the structures.

Assay [1] has as its target T1, Pyk2 (Homo sapiens, UniProt Q14289). Put plainly: Pyk2 Ki of kinase inhibitors (CHEMBL & IUPHR-BPS database screen, Table 2). In kind it is biochemical. Particulars: Pyk2 versus Fyn.
The target of assay [2] is T1, Pyk2. Particulars: read-out: Pyk2 Ki; cited from earlier work.
The subject of the next assay is APP/PS1 mice. Particulars: cited from earlier work.
For assay [3], the system named is cultured hippocampal neurons. Put plainly: Graf1c knockdown-induced dendritic spine loss in cultured hippocampal neurons. Format: cell-based, mouse. Particulars: 10 μM. The procedure:
FIGS. 17A-17B illustrate the finding that Graf1 is a functional GTPase activating protein (GAP) in mature neurons and regulates dendritic spine formation. FIG. 17A: Representative fluorescence images of cultured hippocampal neurons. […] Scale bar, 10 μm. FIG. 17B: Quantification of dendritic spine density in the transfected neurons.
Next, it was evaluated whether RhoA activity is necessary for Pyk2-induced decrease in dendritic spine density. As described elsewhere herein, overexpression of GFP-Pyk2 induces loss of half of hippocampal neuron dendritic spines (FIGS. 10E-10F). […] Therefore, Pyk2 interacts with Graf1c within dendritic spines to allow increased RhoA-GTP levels and subsequent reduced synapse density.

The subject of assay [4] is primary hippocampal neurons. Description: Dendritic spine motility in primary hippocampal neurons. Format: cell-based, mouse.
Source text: FIG. 11A: Representative images of dendritic spine motility by standard deviation projection of time-lapse image. […] The standard deviation value for each pixel is shown by thermal color scale. […] FIG. 11B: Quantification of spine motility, expressed as % of changed area of spines with subtraction of changed area of dendritic shaft as background (changed area=(ΔAspine/Aspine×100)−(ΔAshaft/Ashaft×100)). […] Data are graphed as mean±SEM (n=7-8 coverslips from 3 different cultures). **p<0.01, ***p<0.001 by ANOVA, Tukey's multiple comparisons test.
FIG. 18A: Representative images of dendritic spine motility by standard deviation projection of time stacks. […] To display the spine motility in time-lapse images, the time stack images over 5 min of each conditions were projected to standard deviation using Image J and color coated with thermal color scale. […] FIG. 18B: Quantification of spine motility, expressed as % of changed area of spines with subtraction of dendritic shaft area change (changed area=(ΔAspine/Aspine×100)−(ΔAshaft/Ashaft×100)). Mean±SEM (n=5 coverslips).
Time-lapse images were acquired for 5 minutes with 10 second intervals in Tyrode's solution using 60× objective lens driven Volocity software. Time-lapse images (31 time frames over 5 min) were subjected to standard deviation (STD) projection to visualize spine motility in single image and colorized with thermal scale using ImageJ software (NIH). Quantitative measurements of spine motility by calculating the changed area at individual dendritic spines were conducted by using ImageJ software by an observer unaware of treatment group.

T1 sequence (Q14289 whole entry, species assumed): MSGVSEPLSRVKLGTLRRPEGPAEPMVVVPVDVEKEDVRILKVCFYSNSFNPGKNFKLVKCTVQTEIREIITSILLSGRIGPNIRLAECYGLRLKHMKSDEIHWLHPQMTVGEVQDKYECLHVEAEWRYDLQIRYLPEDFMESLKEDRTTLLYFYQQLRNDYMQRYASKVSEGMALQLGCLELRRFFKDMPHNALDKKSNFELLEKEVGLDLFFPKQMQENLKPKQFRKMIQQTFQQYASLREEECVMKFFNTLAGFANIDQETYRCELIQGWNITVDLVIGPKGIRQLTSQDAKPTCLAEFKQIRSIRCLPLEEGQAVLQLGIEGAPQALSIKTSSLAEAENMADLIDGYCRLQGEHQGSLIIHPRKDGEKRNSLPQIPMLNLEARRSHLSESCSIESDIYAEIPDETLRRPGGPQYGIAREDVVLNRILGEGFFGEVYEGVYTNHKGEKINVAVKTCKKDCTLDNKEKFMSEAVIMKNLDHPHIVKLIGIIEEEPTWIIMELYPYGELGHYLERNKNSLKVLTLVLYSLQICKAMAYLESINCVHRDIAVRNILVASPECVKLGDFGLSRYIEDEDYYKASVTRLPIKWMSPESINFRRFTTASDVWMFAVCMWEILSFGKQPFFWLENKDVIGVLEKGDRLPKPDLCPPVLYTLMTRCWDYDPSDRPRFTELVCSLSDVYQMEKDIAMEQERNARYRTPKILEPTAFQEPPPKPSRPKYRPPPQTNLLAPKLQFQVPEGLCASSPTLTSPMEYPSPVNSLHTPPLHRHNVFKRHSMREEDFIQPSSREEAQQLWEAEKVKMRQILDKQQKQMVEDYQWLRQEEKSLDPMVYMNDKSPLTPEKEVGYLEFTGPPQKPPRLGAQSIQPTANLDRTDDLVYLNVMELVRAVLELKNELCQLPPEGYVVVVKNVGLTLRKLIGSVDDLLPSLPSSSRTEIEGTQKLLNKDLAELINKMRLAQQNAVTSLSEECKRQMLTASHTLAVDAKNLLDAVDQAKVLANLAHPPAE

Regarding `Cc1cnc(Nc2cccc(S(N)(=O)=O)c2)nc1Nc1ccc(OCC(N)=O)cc1` [Compound 8, 2-(4-((5-methyl-2-((3-sulfamoylphenyl)amino)pyrimidin-4-yl)amino)phenoxy)acetamide], the “Inhibition Character” value at Pyk2 [1] is given as “dual Pyk2-Fyn”.
For `CN1CCN(CCOc2cc(OC3CCOCC3)c3c(Nc4c(Cl)ccc5c4OCO5)ncnc3c2)CC1` [AZD-0530, N-(5-chloro-1,3-benzodioxol-4-yl)-7-[2-(4-methyl-1-piperazinyl)ethoxy]-5-[(tetrahydro-2H-pyran-4-yl)oxy]-4-quinazolinamine], at Pyk2 [1], the “Inhibition Character” value is reported as “Fyn selective”. For the same compound, the Ki on Pyk2 [2] is > 1000 nM. For the same compound, the “memory deficits and synapse loss in APP/PS1 mice” value with APP/PS1 mice (mouse, in vivo) was “rescuing memory deficits and synapse loss”. In addition, the “activated p-Pyk2 level in transgenic mice” value in the assay on APP/PS1 mice (transgenic mice have a two-fold increase) is given as “reduces this level to that of WT mice”.
Take `C[C@@H](N)[C@H]1CC[C@H](C(=O)Nc2ccncc2)CC1` [Compound Y27632]: the Graf1c-knockdown-induced spine loss entry in assay [3] is on record as “rescue Graf1c-knockdown-induced spine loss”. Also, the “Aβo-induced decrease in spine motility” value in assay [4] (Aβo 24 hours, PF-719 1 μM, Y27632 10 μM) is reported as “rescue fully the Aβo-induced decrease in spine motility”.
On to `C=C1[C@@H](C)[C@H]2[C@H](Cc3ccccc3)NC(=O)[C@]23[C@H](OC(C)=O)/C=C/[C@@](C)(O)C(=O)[C@@H](C)C/C=C/[C@H]3[C@@H]1O` [cytochalasin D], for which the “spine motility (actin dependence)” value in assay [4] (1 μm Cytochalasin D for 20 minutes, no Aβo) is “near complete cessation of spine motility”.
For `C[C@]12O[C@H](C[C@]1(O)CO)n1c3ccccc3c3c4c(c5c6ccccc6n2c5c31)CNC4=O` [Lestaurtinib, (5S,6S,8R)-6-Hydroxy-6-(hydroxymethyl)-5-methyl-7,8,14,15-tetrahydro-5H-16-oxa-4b,8a,14-triaza-5,8-methanodibenzo[b,h]cycloocta[jkl]cyclopenta[e]-as-indacen-13(6H)-one], at Pyk2 [1], the “Inhibition Character” value is given as “dual Pyk2-Fyn”.
On the same count and under the same terms, for `Cc1cc(N2CCOCC2)cc2nc(-c3c(NCC(O)c4cccc(Cl)c4)cc[nH]c3=O)[nH]c12` (centres unmarked) [Compound 5, 4-((2-(3-chlorophenyl)-2-hydroxyethyl)amino)-3-(7-methyl-5-morpholino-1H-benzo[d]imidazol-2-yl)pyridin-2(1H)-one] the value was “dual Pyk2-Fyn”; for `Cn1cc(-c2cnc(N)c3c(-c4ccc(NC(=O)Nc5ccc(OC(F)F)cc5)cc4)csc23)cn1` [Compound 6, 1-(4-(4-amino-7-(1-methyl-1H-pyrazol-4-yl)thieno[3,2-c]pyridin-3-yl)phenyl)-3-(4-(difluoromethoxy)phenyl)urea], “dual Pyk2-Fyn”.
